Test results taken from patent US9815851B2, “Pyrrolo carboxamides as modulators of orphan nuclear receptor RAR-related orphan receptor-gamma (RORγ, NR1F3) activity and for the treatment of chronic inflammatory and autoimmune diseases” (PHENEX PHARMACEUTICALS AG, priority 2011, dated 2017).
Read-outs that look alike come from different tables or passages of the source.

Columns and labels:
[1] = target: T1, RORγ ligand binding domain (LBD) (Homo sapiens, UniProt P51449); experiment: TR-FRET Activity Assay (ligand sensing, RORγ-LBD / coactivator peptide interaction, LANCE); assay type: biochemical
T1 construct: made in house; host or cells: E. coli BL-21 (BL3), vector pDEST15
T1 sequence (P51449 269-508 limits assumed): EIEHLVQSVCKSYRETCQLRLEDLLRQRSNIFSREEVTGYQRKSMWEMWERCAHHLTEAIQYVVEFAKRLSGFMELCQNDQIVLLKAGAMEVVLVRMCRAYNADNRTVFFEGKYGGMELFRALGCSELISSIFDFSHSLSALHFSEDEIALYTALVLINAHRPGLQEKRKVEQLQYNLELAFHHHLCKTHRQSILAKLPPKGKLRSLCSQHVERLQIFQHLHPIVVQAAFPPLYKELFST

[2] = target: T2, RORγ (UniProt P51449); experiment: RORγ Gal4 Reporter Gene Assay in 293T cells (firefly and renilla luciferase); assay type: cell-based, human
T2 sequence (P51449 1-518): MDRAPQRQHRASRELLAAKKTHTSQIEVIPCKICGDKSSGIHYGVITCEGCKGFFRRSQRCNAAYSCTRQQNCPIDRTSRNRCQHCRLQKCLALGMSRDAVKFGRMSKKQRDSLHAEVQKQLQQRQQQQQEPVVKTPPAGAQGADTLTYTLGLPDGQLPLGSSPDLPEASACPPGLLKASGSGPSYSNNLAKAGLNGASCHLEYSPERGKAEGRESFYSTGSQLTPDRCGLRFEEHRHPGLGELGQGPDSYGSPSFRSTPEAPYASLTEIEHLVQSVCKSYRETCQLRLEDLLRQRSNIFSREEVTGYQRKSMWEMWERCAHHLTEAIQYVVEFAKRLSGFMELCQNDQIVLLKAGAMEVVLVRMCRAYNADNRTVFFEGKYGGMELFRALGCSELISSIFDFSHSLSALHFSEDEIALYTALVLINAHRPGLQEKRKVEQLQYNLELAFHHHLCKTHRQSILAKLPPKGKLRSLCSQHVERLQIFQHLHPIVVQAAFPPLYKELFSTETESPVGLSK

[3] = first value of the cell FRET/FF/REN, TR-FRET activity assay, read-out: pIC50 (FRET) (converted)
[4] = second value of the cell, Gal4 reporter gene assay in 293T cells, firefly luciferase
[5] = third value of the cell, Gal4 reporter gene assay in 293T cells, renilla normalised luciferase

Cc1c(C(=O)NC2COC2)cc(-c2cc(C(C)(C)C)c3c(c2)C2(CCO3)CC2)n1CC1CCCCC1 [1/38]
IC50 [1, 3]: 251 nM | pIC50 (FF) [2, 4]: 7.2 | pIC50 (REN) [2, 5]: 7.3

Cc1c(C(=O)NC2COC2)cc(-c2cc(C(C)(C)C)cc(C(F)(F)F)c2)n1CC1CCCCC1 [1/78]
IC50 [1]: 316 nM | pIC50 (FF) [2]: 6.5/7.1/7.1 | pIC50 (REN) [2]: 6.5/7.1/7.1

Cc1c(C(=O)NCC(C)(C)C(=O)O)cc(-c2ccc(S(=O)(=O)NC(C)(C)C)c(C(C)(C)C)c2)n1CC1CCCCC1 [1/129]
IC50 [1, 3]: 1580 nM | pIC50 (FF) [2, 4]: 7.3 | pIC50 (REN) [2, 5]: 7.3

COCC(C)(C)NS(=O)(=O)c1ccc(-c2cc(C(=O)NC3CCOCC3)c(C)n2CC2CCCCC2)cc1C(F)(F)F [17/109]
IC50 [1]: 631 nM | pIC50 (FF) [2]: 6.2/7.2/7.3 | pIC50 (REN) [2]: 6.2/7.2/7.3

Cc1c(S(=O)(=O)NC(C)(C)C)ccc(-c2cc(C(=O)NC3CCOCC3)c(C)n2CC2CCCCC2)c1C(F)(F)F [17/287]
IC50 [1, 3]: 631 nM | pIC50 (FF) [2, 4]: 7.7 | pIC50 (REN) [2, 5]: 7.7

CC(C)(C)c1cc(-c2cc(C(=O)N[C@H]3C[C@H](C(=O)O)C3)c(F)n2CC2CCCCC2)cc(C2(C)CC2)c1 [20/3]
IC50 [1, 3]: 631 nM | pIC50 (FF) [2, 4]: 7.3 | pIC50 (REN) [2, 5]: 7.4
